# Experiments:
# β2-GPI = target: T1, β2-GPI (Homo sapiens, UniProt P02749); test: ELISA on solid-phase lipid (ligand)-coated plate: β2-GPI binding detected with Cof-22
# T1 construct: β2-GPI was purified from normal human plasma as described in [35] with slight modification; from tissue; host or cells: pooled normal human plasma from healthy subjects
# T1 sequence (P02749 20-345): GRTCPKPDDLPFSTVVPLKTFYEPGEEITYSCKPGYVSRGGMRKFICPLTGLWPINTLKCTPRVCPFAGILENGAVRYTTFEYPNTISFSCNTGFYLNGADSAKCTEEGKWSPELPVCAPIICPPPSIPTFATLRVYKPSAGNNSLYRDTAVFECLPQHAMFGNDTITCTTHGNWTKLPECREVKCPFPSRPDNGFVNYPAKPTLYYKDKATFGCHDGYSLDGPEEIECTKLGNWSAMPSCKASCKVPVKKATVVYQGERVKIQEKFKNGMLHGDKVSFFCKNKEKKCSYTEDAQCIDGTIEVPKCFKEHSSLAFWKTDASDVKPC
# Description: (§1) Binding to extracted lipids: A microtiter plate (Immulon 1B, Dynex Technologies Inc.) was coated with lipids extracted from LDLs (50 μg/mL, 50 μL/well) by ethanol evaporation. The wells were blocked with PBS containing 1% BSA for one hour and the wells were incubated with 30 μg/mL of β2-GPI for one hour. Then, β2-GPI binding was detected using Cof-22 and HRP-labeled anti-mouse IgG antibodies. Alternatively, an anti-β2-GPI autoantibody (Cof-22, WB-CAL-1, or EY2C9) was diluted with a 0.3% BSA-containing PBS, and the diluted antibody was added to the coated plate (1.0 μg/mL, 100 μL/well) and incubated with β2-GPI (15 μg/mL) for one hour. The binding of the antibody was detected by an HRP-labeled anti-mouse IgG /or an anti-human IgM. The color was developed with H2O2 and o-phenylenediamine, and OD was measured at 490 nm. Between these steps, extensive washing were done using PBS containing 0.05% Tween 20.
# (§2) Synthesized oxLig-1 (50 μg/mL, 50 μL/well) was adsorbed by evaporation on a polystyrene plate (Immulon 1B; Dynex Technologies Inc.), and the plate was then blocked with 1% BSA. Serum samples (diluted 1:100 with PBS containing 0.3% BSA) were incubated in the wells with β2-GPI (15 μg/mL) or other proteins for one hour at room temperature. Antibody binding was detected with HRP-labeled anti-human IgG. Further steps were performed through a method as described in “anti-β2-GPI ELISA.”
# (§3) CL (50 μg/mL, 50 μL/well) was adsorbed on a polystyrene plate (Immulon 1B), and further steps were performed through a method as described in “ELISA for antibodies against a protein-oxLig-1 complex.”
# [1] = target: T2, β2-GPI and anti-β2-GPI antibodies (Cof-22, WB-CAL-1, EY2C9) (Homo sapiens, UniProt P02749); test: TLC ligand blot with β2-GPI and anti-β2-GPI antibodies; format: binding; conditions: result in words
# T2 construct: β2-GPI was purified from normal human plasma as described in [35] with slight modification; from tissue; host or cells: β2-GPI from pooled normal human plasma
# T2 sequence (P02749 20-345): T1 sequence (P02749 20-345)
# Excerpt: Extracted lipids were spotted on a Polygram silica gel plate (product of Machery-Nagel) and developed in chloroform/methanol/30% ammonia/water (120:80:10:5, v/v/v/v, hereinafter referred to as solvent A). The plate was stained with I2 vapor, or with a spray of molybdenum blue, of 2N sulfuric acid containing 2% orcin, or of glacial acetic acid/sulfuric acid (19:1, v/v) (Lieberman-Burchard reaction). Alternatively, the developed plate was subjected to ligand blot with β2-GPI and an anti-β2-GPI antibody. TLC plates were blocked with PBS containing 1% bovine serum albumin (BSA) and were subsequently incubated with β2-GPI, anti-β2-GPI antibodies (Cof-22, WB-CAL-1, or EY2C9), and HRP-labeled anti-mouse IgG antibodies or anti-human IgM antibodies for one hour. In each step, plates were extensively washed with PBS. The color was developed with H2O2 and 4-methoxy-1-naphtol (product of Aldrich). The ligand-enriched bands scraped from the TLC plate were subjected to another TLC in chloroform/methanol (8:1, v/v) (hereinafter referred to as solvent B). […]
# A fraction rich in a ligand (originating from oxLDL) obtained by two-step TLC was analyzed by reversed phase HPLC on a Sephasil Peptide C-18 5-μm column (4.6 mm×250 mm; product of Amersham-Pharmacia Biotech). […]
# WB-CAL-1 = test: ELISA on solid-phase lipid (ligand)-coated plate: WB-CAL-1 binding in presence of β2-GPI; parameters: species or system mouse
# Description: as §1, §2, §3
# APS-2 = test: ELISA on solid-phase lipid-coated plate: binding of antibodies of APS patient serum APS-2; parameters: species or system human; conditions: Experiment 1; Absorbance, mean ± SD, n = 3; solid-phase lipid, β2-GPI 15 μg/mL; serum with β2-GPI removed
# Description: To eliminate endogenous β2-GPI in some experiments, serum samples were passed through a heparin-Sepharose column. The effluent was dialyzed against PBS and was used for ELISAs.
# as §2, §3
# EY2C9 = test: ELISA on solid-phase lipid (ligand)-coated plate: EY2C9 binding in presence of β2-GPI; parameters: species or system human
# Description: as §1, §2, §3
# [2] = Experiment 1, Absorbance, mean ± SD, n = 3, solid-phase lipid, β2-GPI 15 μg/mL
# [3] = absorbance at 490 nm, mean ± SD (n = 3), solid-phase ligand not methylated
smiles,measurement,setting,value
"CC(C)CCC[C@@H](C)[C@H]1CC[C@H]2[C@@H]3C(=O)C=C4C[C@@H](OC(=O)CCCCCCCC(=O)O)CC[C@]4(C)[C@H]3CC[C@]12C [oxLig-1, 9-oxo-9-(7-ketocholest-5-en-3β-yloxy)nonanoic acid]","Binding of β2-GPI-dependent aCL, Cof-22",β2-GPI; [2],1.066 ± 0.114
same,"β2-GPI binding (Cof-22 binding), No treatment",β2-GPI; [3],1.307 +/− 0.105
same,β2-GPI binding to lipid,β2-GPI; result in words (discussion),significant bonding
same,ligand blot: interaction of β2-GPI and anti-β2-GPI antibodies with ligand,[1],positively stained
same,ligand blot: interaction of β2-GPI and anti-β2-GPI antibodies with ligand,[1]; listed as Synthesized oxLig-1,same Rf position and binding characteristics
same,"Binding of β2-GPI-dependent aCL, WB-CAL-1",WB-CAL-1; [2],1.035 ± 0.062
same,"WB-CAL-1 binding, No treatment",WB-CAL-1; [3],0.945 +/− 0.068
same,"Binding of β2-GPI-dependent aCL, APS-2",APS-2,1.222 ± 0.057
same,"Binding of β2-GPI-dependent aCL, EY2C9",EY2C9; [2],0.915 ± 0.072
same,"EY2C9 binding, No treatment",EY2C9; [3],1.458 +/− 0.062

# — patent publication US7160733B2, “Ligand specific to β2-glycoprotein I and use thereof” (priority 2001, dated 2007)
